Measurements: PMC5658702, “Lysine acetylome profiling uncovers novel histone deacetylase substrate proteins in Arabidopsis” (Molecular Systems Biology, 2017)
Changes are numbered by the printed parent chain.

Tests used:
Type in all cases: biochemical
[1] = target: T1, RCA-β1 (RCAβ1; 6x-HisRCAβ1) (Arabidopsis thaliana, UniProt F4IVZ7, K438R); assay: ATPase activity, KinaseGlo Max luminescent ATP consumption assay; conditions: read-out: % inhibition at 55 uM ADP
T1 construct: N-terminal 6xHis tag, pCDFDuet-1, E. coli Rosetta-gami
T1 sequence (F4IVZ7 59-441 K438R): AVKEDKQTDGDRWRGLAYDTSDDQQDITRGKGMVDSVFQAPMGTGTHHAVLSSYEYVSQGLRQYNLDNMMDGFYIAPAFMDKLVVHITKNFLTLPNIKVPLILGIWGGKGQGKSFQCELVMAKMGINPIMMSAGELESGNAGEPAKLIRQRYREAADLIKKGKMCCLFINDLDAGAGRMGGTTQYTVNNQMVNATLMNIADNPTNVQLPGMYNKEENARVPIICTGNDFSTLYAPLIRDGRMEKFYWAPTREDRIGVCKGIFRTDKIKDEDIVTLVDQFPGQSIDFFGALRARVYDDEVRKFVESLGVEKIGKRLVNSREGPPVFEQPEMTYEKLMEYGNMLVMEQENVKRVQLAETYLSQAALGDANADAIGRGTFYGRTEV

[2] = target: T2, RCA-β1 (RCAβ1; 6x-HisRCAβ1) (Arabidopsis thaliana, UniProt F4IVZ7, K438Q); assay: as above; conditions: read-out: % inhibition at 55 uM ADP
T2 construct: N-terminal 6xHis tag, pCDFDuet-1, E. coli Rosetta-gami
T2 sequence (F4IVZ7 59-441 K438Q): T1 sequence (F4IVZ7 59-441 K438R) with R380Q

[3] = target: T3, RCA-β1 (RCAβ1; 6x-HisRCAβ1) (Arabidopsis thaliana, UniProt F4IVZ7); assay: as above; conditions: read-out: % inhibition at 55 uM ADP
T3 construct: N-terminal 6xHis tag, pCDFDuet-1, E. coli Rosetta-gami
T3 sequence (F4IVZ7 59-441): T1 sequence (F4IVZ7 59-441 K438R) with R380K

[4] = target: T4, HDA14 (6xHis-HDA14) (Arabidopsis thaliana, UniProt Q941D6); assay: colorimetric deacetylase assay, acetylated p53 peptide p53-5,2-ANB, trypsin-coupled, […] nm
T4 construct: lacks first 45 aa (predicted signal peptide); N-terminal 6xHis tag (pEXP-5-NT/TOPO); E. coli BL21(DE3); apoenzyme reloaded with Zn2+ or Co2+
T4 sequence (Q941D6 46-423): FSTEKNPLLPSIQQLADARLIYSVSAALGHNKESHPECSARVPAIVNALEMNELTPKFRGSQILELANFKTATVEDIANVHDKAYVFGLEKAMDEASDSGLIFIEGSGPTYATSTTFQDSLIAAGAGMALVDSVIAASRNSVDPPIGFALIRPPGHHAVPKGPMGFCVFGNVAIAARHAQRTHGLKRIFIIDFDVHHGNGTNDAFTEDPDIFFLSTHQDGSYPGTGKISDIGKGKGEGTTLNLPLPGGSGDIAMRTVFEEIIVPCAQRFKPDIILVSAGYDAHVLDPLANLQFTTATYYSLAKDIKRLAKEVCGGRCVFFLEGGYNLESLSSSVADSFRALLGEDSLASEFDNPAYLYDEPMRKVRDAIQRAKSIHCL

Row | SMILES | inhibition at 55 µM [1] [%] | inhibition at 55 µM [2] [%] | inhibition at 55 µM [3] [%] | inhibition at 5 µM [4] [%]
1 | Nc1ncnc2c1ncn2[C@@H]1O[C@H](COP(=O)(O)OP(=O)(O)O)[C@@H](O)[C@H]1O [ADP] | ~30 | ~8 | ~19 | 
2 | CC(/C=C/C(=O)NO)=C\[C@@H](C)C(=O)c1ccc(N(C)C)cc1 [trichostatin A] |  |  |  | 80
